Experimental data from PMC6153800, “Structure-Based Drug Design and Characterization of Sulfonyl-Piperazine Benzothiazinone Inhibitors of DprE1 from Mycobacterium tuberculosis” (Antimicrobial Agents and Chemotherapy, 2018).
≈ marks a conversion by molar mass, not a printed value. Read-outs that look alike come from different tables or passages of the source.

Columns and labels:
[1] = mouse microsomes; cited from earlier work
[2] = human microsomes; cited from earlier work
in vitro = conditions: for microsomal CLint / microsomal CLint at 1 μg/ml: microsomes, pH 7.4; for Microsomal stability / clearance (in words), human: human microsomes; for Microsomal stability / clearance (in words), mouse: mouse microsomes
Description: The intrinsic clearance (CLint) of compounds was measured in both mouse and human liver microsomes. Briefly, 100 μg of mouse (CD-1) or human liver microsomes (both from Invitrogen) were mixed in 0.1 M phosphate buffer (pH 7.4) containing 0.01 μl of compound dissolved in dimethyl sulfoxide (DMSO) at 10 mg/ml in a final volume of 50 μl. In parallel, an NADPH-regenerating system (Promega) was prepared in 0.1 M phosphate buffer (pH 7.4). […] After 0, 5, 15, 30, and 60 min, the reactions were terminated by transferring […] into 100 μl of acetonitrile and placing the mixture on ice for 30 min for full protein precipitation. […] After 0 and 60 min, the reactions were terminated, prepared and analyzed as previously described.

[3] = Water solubility, shake flask method; type: physicochemical; conditions: for solubility at 3 days: 25 °C, water, thermodynamic from solid
Description: Water solubility measurements were performed using the shake flask method ([28]). Approximately 1 ml of water was added to 1 mg of compound in an Eppendorf tube, followed by incubation for 3 days at 25°C with shaking at 800 rpm. Suspensions were centrifuged at 16,100 × g for 10 min, and the supernatant was filtered using 0.22-μm-pore size filters. Filtrates were injected onto a high-performance liquid chromatography (HPLC) column (Dionex), and the amount of compound was quantified using a calibration curve.

HepG2 cells = conditions: for TD50 / Cytotoxicity (in words) / Concentration of mild cytotoxicity: HepG2 cells; for TD50: 3 days; for Selective index: ratio TD50 (HepG2) to MIC99 (H37Rv)
M. tuberculosis H37Rv [4] = test: Murine model of chronic TB; type: in vivo, Mycobacterium tuberculosis; conditions: BALB/cByJ mice
M. tuberculosis H37Rv [5] = test: microbe, parasite or virus in culture; type: cell-based
M. tuberculosis H37Rv [6] = tested on: M. tuberculosis H37Rv; parameters: method as in PMID 24500695; conditions: ref [5]; cited from earlier work
[7] = 25 mg/kg by gavage 5 days a week for 4 weeks
[8] = Mycobacterium tuberculosis, H37RV, REMA, 7H9 broth, 6 days + 24 h resazurin, read-out: MIC99 H37Rv
[9] = 50 mg/kg by gavage 5 days a week for 4 weeks
[10] = Mycobacterium tuberculosis, H37Rv, read-out: MIC

Row | SMILES | TD50 (HepG2 cells) [µg/mL] | MIC (M. tuberculosis H37Rv [5]; [8]) [µg/mL] | melting point [°C] | solubility at 3 days [3] [µg/mL] | microsomal CLint at 1 μg/ml (in vitro; CD-1, mouse) [µL/min/mg] | Microsomal stability / clearance (in words), human (in vitro) | microsomal CLint at 1 μg/ml (in vitro; human) [µL/min/mg] | other results
1 | C[C@H]1COC2(CCN(c3nc(=O)c4cc(C(F)(F)F)cc([N+](=O)[O-])c4s3)CC2)O1 [BTZ043] | – | – | – | – | – | – | – | CLint mouse microsome [1]: 16.5 μl/min/mg protein; CLint human microsome [2]: 4.20 μl/min/mg protein
2 | NC(=O)N1c2ccccc2C=Cc2ccccc21 [Carbamazepine, reference compound] | – | – | – | – | – | – | – | microsomal CLint (in vitro; CD-1, mouse): 0.6 µL/min/mg; microsomal CLint (in vitro; human): 0.4 µL/min/mg
3 | O=c1nc(N2CCN(CC3CCCCC3)CC2)sc2c([N+](=O)[O-])cc(C(F)(F)F)cc12 [PBTZ169, macozinone, reference compound] | 44.00 | 0.0002 | – | – | – | – | – | Times more soluble in water than calculated [3]: 400 times; Bacterial burden in lungs lower than untreated control (M. tuberculosis H37Rv [4]; [7]): 1.03 log10 CFU; Bacterial burden in spleens lower than untreated control (M. tuberculosis H37Rv [4]; [7]): 1.47 log10 CFU; CLint mouse microsome [1]: 36.7 μl/min/mg protein; CLint human microsome [2]: 28 μl/min/mg protein; MIC against M. tuberculosis (M. tuberculosis H37Rv [6]): 0.3 nM (≈ 0.137 ng/mL)
4 | CO[C@H]1/C=C/O[C@@]2(C)Oc3c(C)c(O)c4c(O)c(c(/C=N/N5CCN(C)CC5)c(O)c4c3C2=O)NC(=O)/C(C)=C\C=C\[C@H](C)[C@H](O)[C@@H](C)[C@@H](O)[C@@H](C)[C@H](OC(C)=O)[C@@H]1C [Rifampin, reference compound] | 100.00 | 0.0008 | – | – | – | – | – | –
5 | Cc1noc(C)c1S(=O)(=O)N1CCN(c2nc(=O)c3cc(C(F)(F)F)cc([N+](=O)[O-])c3s2)CC1 [compound 11326056] | – | 0.06 | 265 to 267 | – | – | – | – | –
6 | CCn1cc(S(=O)(=O)N2CCN(c3nc(=O)c4cc(C(F)(F)F)cc([N+](=O)[O-])c4s3)CC2)c(C)n1 [compound 11326058] | – | 0.4 | 218 to 220 | – | – | – | – | –
7 | O=c1nc(N2CCN(S(=O)(=O)c3cccs3)CC2)sc2c([N+](=O)[O-])cc(C(F)(F)F)cc12 [compound 11326059] | 100 | 0.004 | 210 to 214 | < 0.01 | 18.6 | medium clearances | 16.8 | Times less soluble in water than 11626095, 11626092 and 11626091 [3]: at least 100 times; Cytotoxicity (in words) (HepG2 cells): not cytotoxic; Selective index (HepG2 cells): 25,000; Microsomal stability / clearance (in words), mouse (in vitro): medium clearances
8 | Cc1nn(C)cc1S(=O)(=O)N1CCN(c2nc(=O)c3cc(C(F)(F)F)cc([N+](=O)[O-])c3s2)CC1 [compound 11326061] | – | 0.4 | 200 to 203 | – | – | – | – | –
9 | CC(=O)c1ccc(S(=O)(=O)N2CCN(c3nc(=O)c4cc(C(F)(F)F)cc([N+](=O)[O-])c4s3)CC2)cc1 [compound 11326119] | – | 50 | 280 to 282 | – | – | – | – | –
10 | O=c1nc(N2CCN(S(=O)(=O)c3ccc(OC(F)(F)F)cc3)CC2)sc2c([N+](=O)[O-])cc(C(F)(F)F)cc12 [compound 11326120] | – | 0.1 | – | – | – | – | – | –
11 | O=c1nc(N2CCN(S(=O)(=O)c3ccc(Cl)s3)CC2)sc2c([N+](=O)[O-])cc(C(F)(F)F)cc12 [compound 11326121] | – | 0.03 | 210 to 213 | – | – | – | – | –
12 | O=c1nc(N2CCN(S(=O)(=O)c3cc(Cl)c(Cl)s3)CC2)sc2c([N+](=O)[O-])cc(C(F)(F)F)cc12 [compound 11326122] | – | 0.8 | 265 to 267 | – | – | – | – | –
13 | O=c1nc(N2CCN(S(=O)(=O)c3ccc(C(F)(F)F)cc3)CC2)sc2c([N+](=O)[O-])cc(C(F)(F)F)cc12 [compound 11326123] | – | 0.1 | 222 to 225 | – | – | – | – | –
14 | CCCCc1ccc(S(=O)(=O)N2CCN(c3nc(=O)c4cc(C(F)(F)F)cc([N+](=O)[O-])c4s3)CC2)cc1 [compound 11326124] | – | 800 | 226 to 229 | – | – | – | – | –
15 | CCC(C)(C)c1ccc(S(=O)(=O)N2CCN(c3nc(=O)c4cc(C(F)(F)F)cc([N+](=O)[O-])c4s3)CC2)cc1 [compound 11326125] | – | 0.5 | 231 to 233 | – | – | – | – | –
16 | Cc1oncc1S(=O)(=O)N1CCN(c2nc(=O)c3cc(C(F)(F)F)cc([N+](=O)[O-])c3s2)CC1 [compound 11326126] | – | 1.6 | 281 to 283 | – | – | – | – | –
17 | O=c1nc(N2CCN(S(=O)(=O)C3CCCCC3)CC2)sc2c([N+](=O)[O-])cc(C(F)(F)F)cc12 [compound 11326127] | >100 | 0.006 | – | < 0.01 | 19 | medium clearances | 21.5 | Times less soluble in water than 11626095, 11626092 and 11626091 [3]: at least 100 times; Cytotoxicity (in words) (HepG2 cells): not cytotoxic; MIC99 (M. tuberculosis H37Rv [5]; Mycobacterium tuberculosis, H37RV): 6 nM (≈ 3.04 ng/mL); Microsomal stability / clearance (in words), mouse (in vitro): medium clearances
18 | COC(=O)c1sccc1S(=O)(=O)N1CCN(c2nc(=O)c3cc(C(F)(F)F)cc([N+](=O)[O-])c3s2)CC1 [compound 11326128] | – | 0.1 | 127 to 129 | – | – | – | – | –
19 | O=c1nc(N2CCN(S(=O)(=O)C3CC3)CC2)sc2c([N+](=O)[O-])cc(C(F)(F)F)cc12 [compound 11626091] | 8.10 | 0.003 | 201 to 204 | 8.6 ± 3.8 (≈ 18.5 µM) | 2.7 | lowest clearances | 9.7 | Concentration of mild cytotoxicity (HepG2 cells): around 10 μg/ml; Selective index (HepG2 cells): 2,700; Bacterial burden in lungs lower than untreated control (M. tuberculosis H37Rv [4]; [9]): 0.46 log10 CFU; Bacterial burden in spleens lower than untreated control (M. tuberculosis H37Rv [4]; [9]): 1.03 log10 CFU; Fold less active than MCZ (MIC99 relative to MCZ) (M. tuberculosis H37Rv [5]; H37Rv): 15 fold; Microsomal stability / clearance (in words), mouse (in vitro): lowest clearances
20 | CCS(=O)(=O)N1CCN(c2nc(=O)c3cc(C(F)(F)F)cc([N+](=O)[O-])c3s2)CC1 [compound 11626092] | 8.90 | 0.003 | 204 to 207 | 10.7 ± 4.6 (≈ 23.6 µM) | 3 | lowest clearances | 1.4 | Concentration of mild cytotoxicity (HepG2 cells): around 10 μg/ml; Selective index (HepG2 cells): 2,967; MIC (M. tuberculosis H37Rv [5]; [10]): 0.003 µg/mL (≈ 0.00663 µM); Microsomal stability / clearance (in words), mouse (in vitro): lowest clearances
21 | CCCCS(=O)(=O)N1CCN(c2nc(=O)c3cc(C(F)(F)F)cc([N+](=O)[O-])c3s2)CC1 [compound 11626093] | >100 | 0.001 | 215 to 219 | 0.105 ± 0.05 (≈ 0.219 µM) | 42 | metabolically stable | 6.4 | Times less soluble in water than 11626095, 11626092 and 11626091 [3]: at least 100 times; Cytotoxicity (in words) (HepG2 cells): not cytotoxic; Selective index (HepG2 cells): >100,000; Fold less active than MCZ (MIC99 relative to MCZ) (M. tuberculosis H37Rv [5]; H37Rv): 5 fold; MIC (M. tuberculosis H37Rv [5]; H37Rv): 1 µg/mL (≈ 2.08 µM); Microsomal stability / clearance (in words), mouse (in vitro): highly unstable
22 | O=c1nc(N2CCN(S(=O)(=O)c3cccc4cnccc34)CC2)sc2c([N+](=O)[O-])cc(C(F)(F)F)cc12 [compound 11626094] | 100.00 | 0.01 | 243 to 245 | 0.088 ± 0.04 (≈ 0.16 µM) | 24 | highly unstable | 277 | Times less soluble in water than 11626095, 11626092 and 11626091 [3]: at least 100 times; Cytotoxicity (in words) (HepG2 cells): not cytotoxic; Selective index (HepG2 cells): 10,000
23 | CS(=O)(=O)N1CCN(c2nc(=O)c3cc(C(F)(F)F)cc([N+](=O)[O-])c3s2)CC1 [compound 11626095] | 7.80 | 0.02 | 186 to 188 | 10.6 ± 1.8 (≈ 24.2 µM) | 0.9 | lowest clearances | 1 | Concentration of mild cytotoxicity (HepG2 cells): around 10 μg/ml; Selective index (HepG2 cells): 390; MIC (M. tuberculosis H37Rv [5]; [10]): 0.02 µg/mL (≈ 0.0456 µM); Microsomal stability / clearance (in words), mouse (in vitro): lowest clearances
